pIC50, pKd: −log10 of the molar value. Positions of bridges follow the written chain, without caps; N, C: chain ends. Non-standard residues stand in square brackets, D forms with d. Residues, ends and D or L forms follow the SMILES beside them. Chains are numbered I, II in the order given. AEEA = NCCOCCOCC(=O)O Bounds are passed on as bounds.

The values that follow come from patent EP4424699A1, “HBV CORE PROTEIN BINDING COMPOUNDS AND USES THEREOF” (Julius-Maximilians-Universität Würzburg, priority 2023, dated 2024).

The target of one data set is T1, fl wt HBc capsids (Hepatitis B virus genotype D subtype ayw, UniProt P03146).
T1 construct: Full length wild type (fl wt) HBc; made in house; host or cells: E. coli
In words: Isothermal titration calorimetry (ITC) of peptide dimers with HBc capsids. It counts as binding. The method, then: Binding stoichiometry, binding affinity and thermodynamic parameters were determined. Table 2 iTC200 instrument's specifications used for the interaction analysis between peptide-dimers and capsids.

Data set [1] has as its target T2, HBc capsids (Hepatitis B virus genotype D subtype ayw, UniProt P03146). Put plainly: Cryo-EM of HBc capsids in complex with peptide dimers. It counts as binding. Particulars: from EM-maps. Set-up: Full length wild type (fl wt) HBc; made in house; host or cells: E. coli. The method, then:
In a plasma cleaner (model PDC-002. Harrick Plasma, Ithaca, NY, USA) holey carbon grids (R1.2/1.3, 300 mesh Cu grids, Quantifoil Micro Tools, Jena, Germany) were made hydrophilic by plasma discharging. This was done at a pressure of 29 Pa for 2 minutes using ambient air as plasma medium at "medium power" of the instrument. First, solutions of purified HBc (200 µM) in complex with the P1dC- and the SLLGRM-dimer (each 400 µM) were prepared in buffer A and 3.5 µl aliquots of each sample were applied onto the grids. For plunge freezing of grids ethane was used as medium (liquefied by liquid nitrogen) with the help of a Vitrobot (mark IV, FEI Company, Hillsboro, OR, USA) using filter papers of Whatman (type 541). The Vitrobot had following settings: no wait and drain times, 6 s of blot time, blot force of 25 and a nominal humidity of 100 %. The frozen grids were stored in liquid nitrogen for at least one night before being used for image acquisition.
Cryo-EM was done as previously described (Makbul, Kraft, et al., 2021). In brief: Movies were acquired with the software EPU on a Krios G3 electron microscope equipped with a Falcon III camera (Thermo Fisher Scientific, Hillsboro, OR, USA) in linear mode at a magnification of 75,000 with an accelerating voltage of 300 kV. The total exposure was 40 e-/Å^2 and was fractionated across 20 fractions. […]

For a further data set, the target named is T3, HBc (Hepatitis B virus genotype D subtype ayw, UniProt P03146).
T3 construct: Full length wild type (fl wt) HBc; made in house; host or cells: E. coli
In words: Turbidity assay of HBc solutions at 350 nm. Particulars: 50 µM HBc solution, RT. The method, then:
The concentrations of the P1-, P2- and SLLGRM-dimers were varied between 0.1-100 µM and the concentration of HBc kept constant at 10 µM for the P1- and P2-dimer and at 50 µM for the SLLGRM-dimer. All experiments were performed using a standard photometer (GENESYS™ UV/VIS spectral photometer, Thermo Fisher Scientific, Hillsboro, OR, USA) at RT and at a wavelength of 350 nm using disposable UV transparent cuvettes.

A further data set is described as follows: physchem. Particulars: buffer obtained from the dialysis of capsids (buffer A), pH 7.5, aqueous buffer. The method, then:
Purified and pooled fractions (ca 8 ml) of capsids were filtered (Rotilabo syringe filter with a pore size of 220 nm, Carl Roth GmbH Co. KG, Karlsruhe, Germany), dialysed against 1.4 L buffer A (40 mM HEPES, 200 mM NaCl, 1 mM MgCl2, 1 mM CaCl2, pH 7.5) using a dialysis membrane tube (Spectra Por Biotech cellulose ester tube, 1 MDa MWCO, Spectrum Laboratories, Inc., Rancho Dominguez, CA, USA). The dialysis was performed at 4 °C under gentle stirring for 16 h overnight. Next day, the dialysed sample was removed from the dialysis tube and concentrated in a centrifuge using a concentrator (30 kDa MWCO Spin-X UF 6 mL, Corning Inc., Corning, NY, USA). Before the determination of the concentration by the Bradford assay (Roti Nanoquant, Carl Roth GmbH Co. KG, Karlsruhe, Germany) the concentrate was filtered (centrifugal filter unit Ultrafree MC, pore size of 100 nm, Merck KGaA, Darmstadt, Germany). The dimeric peptides were dissolved in the buffer obtained from the dialysis of capsids. […] Before filling the ITC cell and syringe, all samples were degassed for 10 minutes at 20 °C (ThermoVac, Malvern Panalytical, Malvern, Worcestershire, UK). Using a MicroCal iTC200 instrument (Malvern Panalytical, Malvern, Worcestershire, UK) solutions of dimeric peptides were titrated into solutions of capsids according to specifications in the Table 2. […]

For data set [2], the target named is HBc's interaction to the surface protein L-HBs (Hepatitis B virus genotype D subtype ayw, UniProt P03146). Particulars: result in words; cited from earlier work.
Data set [3] relates to HBV production in Hep G2 human hepatoblastoma cell lines. Particulars: cited from earlier work; for pIC50: inhibition of HBV production.
Data set [4] deals with T2, HBc capsids. Particulars: monomeric peptides; cited from earlier work.
Data set [5] addresses full-length wild type HBc (fl wt HBc) (Hepatitis B virus genotype D subtype ayw, UniProt P03146). Particulars: result in words; cited from earlier work.
In data set [6] the target is full length wild type HBV core protein (fl wt HBc), capsids (Hepatitis B virus (genotype D; strain ayw)) (UniProt P03146). Put plainly: ITC KD of the dimer against the literature KD of monomeric SLLGRM.
For data set [7] the target is unchanged. In words: cryo-EM maps of HBc capsids with bound dimer.
The target is the same in data set [8]. In words: ITC, dimer titrated into fl wt HBc capsids, 20 °C, one site model.

As to `CSCC[C@H](NC(=O)[C@H](CCCNC(=N)N)NC(=O)CNC(=O)[C@H](CC(C)C)NC(=O)[C@H](CC(C)C)NC(=O)[C@@H](N)CO)C(=O)NCCOCCOCC(=O)NCCOCCOCC(=O)NCCOCCOCC(=O)NCCOCCOCC(=O)NCCCC[C@@H](NC(=O)COCCOCCNC(=O)COCCOCCNC(=O)COCCOCCNC(=O)COCCOCCNC(=O)[C@H](CCSC)NC(=O)[C@H](CCCNC(=N)N)NC(=O)CNC(=O)[C@H](CC(C)C)NC(=O)[C@H](CC(C)C)NC(=O)[C@@H](N)CO)C(=O)O` [SLLGRM-dimer] (I: H-SLLGRM[AEEA][AEEA][AEEA][AEEA][dK]-OH / II: H-SLLGRM[AEEA][AEEA][AEEA][AEEA]; amide I:11-II:C; N-terminus and C-terminus assumed), the “affinity increase over the respective monomers” value on fl wt HBc capsids (KD of dimer versus KD of monomer) is recorded as 26 fold. In addition, the Ka at fl wt HBc capsids (association constant, ITC at 20 °C, refers to monomeric HBc) was 208200 ±31284 (1)/(M). The molecule also had a ΔH on fl wt HBc capsids (binding enthalpy, ITC) of -25.316 ± 2.748 kcal/mol. The ΔS at fl wt HBc capsids (binding entropy, ITC) was -62 ±10 (cal)/(mol × K). This molecule showed a N at fl wt HBc capsids (stoichiometry, ITC at 20 °C, one site model, refers to monomeric HBc) of 0.145 ±0.023. In addition, the “molar ratio to HBc capsids” value on HBc capsids [1] was found to be 0.25. For the same molecule, the concentration inducing turbidity result at HBc is “high micromolar concentrations”. In the data set “physchem”, this molecule returned a solubility of at least 8 mM.
With ALLGRMKG [21], the “inhibition of HBc's interaction to L-HBs” value in [2] is listed as “inhibited”.
Regarding GSLLGRMKGA [Pep2], in [3] (at high micromolar concentrations), the “production HB viruses reduced to” value is “ca. 30%”. Besides, the pIC50 in data set [3] was 6.10. For the same molecule, the pKd with HBc capsids [4] was 4.17.
Take LLGRMK: the “binding to fl wt HBc” value in data set [5] was “bound”.
Turning to MHRSLLGRMKGA [Pep1], the pKd with HBc capsids [4] was 4.59.
Take SLLGRM: the negative-log Kd (pKd) with HBc capsids [4] is 3.89.
For the molecule SLLGRM-dimer (peptide), the fold affinity increase over the respective monomer in data set [6] is 26 fold. Besides, the molar ratio in data set [7] was 0.25. In data set [8], this molecule gave a pKd of 5.31, a N (stoichiometry) of 0.145, a binding enthalpy (ΔH) of -25300 and a binding entropy (ΔS) of -62.
On to SLLGRMKG [23], for which the pIC50 in data set [3] was 5.19.
For the molecule SLLGRMKGA [22], the pIC50 in data set [3] was 5.62.
